The results in this text go back to US20220288110A1, “DRUG TREATMENT AND BIOMARKER PANEL TARGETED TO DISEASES DUE TO MULT[…] OF […]” (priority 2021, published 2022).

Where “and” joins values, the source holds several entries; their conditions need not be identical. Equal entries are not always repeated.

This test deals with Severe Acute Respiratory Syndrome-Associated Coronavirus (SARS-CoV-1) Urbani strain. More on the design: species or system BALB/C mice. The following applies: in vivo.

As to polyinosinic: polycytidylic acid, the “relative efficacy in reducing viral load in mouse lung (in words)” value was “lower viral titers at the 3-day mark”. In addition, for the setting “mouse”, the “order of efficacy by percent reduction in viral load” value is recorded as “H>G>F>A>D>B=C>I>J>E” and the “virtual linear slope of viral reduction beyond 5 days post exposure: day mark at which it converged” value came out at 7 days. Also, where the note is “mouse, ip, 10 mg/kg/day”, the Lung virus titer was 7.2 CC ID/50 (Log 10) and 7.0 CC ID/50 (Log 10) and 6.5 CC ID/50 (Log 10) and 6.0 CC ID/50 (Log 10) and 6.2 CC ID/50 (Log 10); the “percent reduction in viral load” value came to 11.8%.
